Reference: PMC3527451, “A Pilot Randomized, Placebo Controlled, Double Blind Phase I Trial of the Novel SIRT1 Activator SRT2104 in Elderly Volunteers” (PLoS ONE, 2012)
“Also recorded” adds a separate entry of the source. Like-named read-outs stand apart in the source and are kept apart here.

Columns and labels:
[1] = cited from earlier work
[2] = Plasma pharmacokinetics of SRT2104, once daily oral dosing for 28 days in elderly volunteers; type: in vivo, human; details: for AUC(0-∞), Geometric Least Square Mean: Day 1, AUC(0-∞); for AUC(0-t)_D, dose-normalized Geometric Least Square Mean / AUC(0-∞)_D, dose-normalized Geometric Least Square Mean / Cmax_D, dose-normalized Geometric Least Square Mean / AUC(0-τ)_D, dose-normalized Geometric Least Square Mean: normalized to 0.5 g
From the text: This was a phase I, single-center, double-blind, randomized, placebo-controlled, parallel-arm study to assess the safety, tolerability, pharmacokinetic and initial pharmacodynamic properties of […] Pharmaceuticals, Cambridge, MA, USA) administered for the first time to male and female elderly volunteers 60 to 80 years of age. Volunteers were enrolled between 01 Oct 2009 and 5 Feb 2010. […] The selection of the doses investigated in this study was based upon safety and pharmacokinetic data obtained from a previous clinical study involving SRT2104 [19]. Suitability of participants was defined on the basis of a medical history, physical examination, vital signs, electrocardiogram and laboratory measurements. Subjects were required to have normal fasting glucose levels (4.4 to 6.0 mmol/L) at screening and a body mass index of at least 18 kg/m^2 and no greater than 30 kg/m^2. […] Subjects were deemed ineligible if they participated in any clinical trial with an investigative medicinal product within the past three months prior to the first dose in the current study, had been exposed to more than three new chemical entities within 12 months of enrollment, or used other concomitant medications and herbal products in the previous 3 months that in the opinion of the investigator could interfere with the study procedures or compromise subject safety. Additional exclusions included: women of childbearing potential and non-sterile men, unless they agreed to use acceptable method of contraception; history of alcoholism or drug abuse (including a positive pre-study drug/alcohol test at screening); use of tobacco or nicotine products; history of complications when donating blood or known relative inaccessibility of veins for venipuncture; donation of blood within three months of enrolment; history of significant drug or other allergies. Participants were asked to maintain their usual level of physical activity for the duration of the study. During the treatment phase of the study (days 1 to 28 inclusive), test material (SRT2104 or placebo) was supplied as 250 mg capsules and was administered at approximately the same time every morning, approximately 15 minutes following consumption of a standardized meal (Ensure Plus®, a high energy, high protein liquid meal replacement product providing approximately 650 kcal with approximately 30% of calories derived from fat). Subjects were not permitted to consume additional calories for at least 1-2 hours after dosing, although water was permitted ad libitum. Subjects were also instructed to refrain from caffeine and alcohol for 24 hours prior to screening and during assessments visits. The test material was administered within the investigation clinical unit on the days when serial pharmacokinetic sampling was performed (days 1-2 and 28-29) and at home on the remaining days (days 3-27). A diary card was provided to volunteers to confirm daily consumption of the standardized meal, as well as time of dose and number of capsules taken. Missing doses were recorded. Pharmacokinetic samples were collected through 24 hours post-dose on the first and last day of the dosing period (immediately prior to dosing and at 15, 30 minutes and 1, 2, 3, 4, 8, 12 and 24 hours post-dose). Blood samples for pharmacokinetic analysis were collected in pre-labelled lithium heparin heparin Vacutainers for pharmacokinetic analysis (∼4 mL per draw). Each sample was separated by centrifugation at 1500×g and 4°C for 10 minutes. Two equal aliquots of plasma were transferred to polypropylene vials labelled identically to the original blood sample and stored at approximately -20°C for subsequent analysis of plasma SRT2104 concentration. The bio-analysis was performed by Simbec Research Ltd, […], South Wales, UK. Pharmacokinetic parameters for SRT2104 were derived from non-compartmental methods using WinNonLin v5.2 (Pharsight Corporation, Mountain View, CA, USA). […]

39 common receptors = test system: 39 common receptors; set-up: method as in SRT2104 Investigator's Brochure; details: in vitro; ref SRT2104 Investigator's Brochure; cited from earlier work
DIO mice and ob/ob mice = details: cited from earlier work
[3] = 0.5 or 2.0 g once daily, abstract summary
[4] = once daily oral administration, ref SRT2104 Investigator's Brochure

Cc1nc(-c2cccnc2)sc1C(=O)Nc1ccccc1-c1cn2c(CN3CCOCC3)csc2n1 [SRT2104]
dose proportionality of AUC(0-t) and Cmax ([1]; dose range 0.03 to 1.0 g/day): approximate dose proportionality | dose proportionality of AUC(0-t) and Cmax ([1]; doses greater than 1.0 g/day up to 3.0 g/day): less than dose proportional increase between 1.0–3.0 g/day | effect of dose on elimination half-life (t1/2) ([1]; doses up to 3.0 g/day): not affected by dose; also recorded: similar | terminal elimination half-life (t½) ([1]; healthy male volunteers, 0.03 – 3.0 g/day, liquid suspension, ref SRT-2104-001 (19)): 8 to 24 h | Tmax (mean peak plasma concentration) ([2]; 0.5 g/day group): 2 to 4 h | between-subject variability for AUC(0–24), geometric mean CV ([2]; 0.5 g/day group): 140% | t1/2 of one subject ([2]; 0.5 g/day group, after first administration): 29.7 h | t1/2 of one subject ([2]; 0.5 g/day group, after repeated administrations): 28.3 h | AUC(0-t), Geometric Least Square Mean ([2]; 0.5 g/day, Day 1): 1950.07 ng·h/mL | Cmax, Geometric Least Square Mean ([2]; 0.5 g/day, Day 1): 326.22 ng/mL | AUC(0-∞), Geometric Least Square Mean ([2]; 0.5 g/day): 2503.70 ng·h/mL | AUC0-∞ ([2]; 0.5 g/day, Day 1, geometric mean): 1790.8 ng·h/mL | AUC0-t ([2]; 0.5 g/day, Day 1, mean): 1872.9 ng·h/mL | CL/F ([2]; 0.5 g/day, Day 1, mean): 594.2 L/h | Cmax ([2]; 0.5 g/day, Day 1, mean): 343.4 ng/mL | t1/2 ([2]; 0.5 g/day, Day 1, mean): 14.9 h | tmax ([2]; 0.5 g/day, Day 1, median): 3.0 h | AUC(0-t), Geometric Least Square Mean ([2]; 0.5 g/day, Day 28): 1610.10 ng·h/mL | Cmax, Geometric Least Square Mean ([2]; 0.5 g/day, Day 28): 199.12 ng/mL | AUC0-∞ ([2]; 0.5 g/day, Day 28, geometric mean): 2687.8 ng·h/mL | AUC0-t ([2]; 0.5 g/day, Day 28, mean): 2280.4 ng·h/mL | CL/F ([2]; 0.5 g/day, Day 28, mean): 566.9 L/h | Cmax ([2]; 0.5 g/day, Day 28, mean): 373.4 ng/mL | t1/2 ([2]; 0.5 g/day, Day 28, mean): 17.5 h | tmax ([2]; 0.5 g/day, Day 28, median): 3.0 h | Mean Tmax [2, 3]: 2 to 4 h | elimination half-life [2, 3]: 15 to 20 h | dose proportionality of exposure (Cmax, AUC) ([2]; 0.5 to 2.0 g/day): less than dose-proportionally; also recorded: less than dose proportional increase in exposure | between-subject variability for AUC(0–24), geometric mean CV ([2]; 2.0 g/day group): 102% | Tmax (apparent mean rise to peak concentration) ([2]; 2.0 g/day group, after the first dose): 2 to 8 h | AUC(0-t), Geometric Least Square Mean ([2]; 2.0 g/day, Day 1): 1743.14 ng·h/mL | Cmax, Geometric Least Square Mean ([2]; 2.0 g/day, Day 1): 301.28 ng/mL | AUC(0-∞), Geometric Least Square Mean ([2]; 2.0 g/day): 1788.42 ng·h/mL | AUC0-∞ ([2]; 2.0 g/day, Day 1, geometric mean): 2073.5 ng·h/mL | AUC0-t ([2]; 2.0 g/day, Day 1, mean): 3249.2 ng·h/mL | CL/F ([2]; 2.0 g/day, Day 1, mean): 1624.4 L/h | Cmax ([2]; 2.0 g/day, Day 1, mean): 477.6 ng/mL | t1/2 ([2]; 2.0 g/day, Day 1, mean): 15.1 h | tmax ([2]; 2.0 g/day, Day 1, median): 3.0 h | AUC(0-t), Geometric Least Square Mean ([2]; 2.0 g/day, Day 28): 3577.50 ng·h/mL | Cmax, Geometric Least Square Mean ([2]; 2.0 g/day, Day 28): 389.50 ng/mL | AUC0-∞ ([2]; 2.0 g/day, Day 28, geometric mean): 7729.6 ng·h/mL | AUC0-t ([2]; 2.0 g/day, Day 28, mean): 4797.4 ng·h/mL | CL/F ([2]; 2.0 g/day, Day 28, mean): 789.6 L/h | Cmax ([2]; 2.0 g/day, Day 28, mean): 572.4 ng/mL | t1/2 ([2]; 2.0 g/day, Day 28, mean): 21.6 h | tmax ([2]; 2.0 g/day, Day 28, median): 3.0 h | increase in mean AUC(0–24) relative to the first day of dosing ([2]; 2.0 g/day, repeat administration): approximately two-fold increases | AUC(0-t)_D, dose-normalized Geometric Least Square Mean ([2]; Day 1, 0.5 g/day): 1297.86 ng·h/mL | AUC(0-∞)_D, dose-normalized Geometric Least Square Mean ([2]; Day 1, 0.5 g/day): 1754.57 ng·h/mL | Cmax_D, dose-normalized Geometric Least Square Mean ([2]; Day 1, 0.5 g/day): 215.74 ng/mL | AUC(0-t)_D, dose-normalized Geometric Least Square Mean ([2]; Day 1, 2.0 g/day): 516.59 ng·h/mL | AUC(0-∞)_D, dose-normalized Geometric Least Square Mean ([2]; Day 1, 2.0 g/day): 504.43 ng·h/mL | Cmax_D, dose-normalized Geometric Least Square Mean ([2]; Day 1, 2.0 g/day): 69.64 ng/mL | AUC(0-t)_D, % Ratio (90% C.I.) 2.0 g/0.5 g ([2]; Day 1, dose proportionality): 39.80 (14.39–110.07) % | AUC(0-∞)_D, % Ratio (90% C.I.) 2.0 g/0.5 g ([2]; Day 1, dose proportionality): 28.75 (9.56–86.49) % | Cmax_D, % Ratio (90% C.I.) 2.0 g/0.5 g ([2]; Day 1, dose proportionality): 32.28 (10.41–100.15) % | AUC(0-t)_D, dose-normalized Geometric Least Square Mean ([2]; Day 28, 0.5 g/day): 1548.09 ng·h/mL | AUC(0-τ)_D, dose-normalized Geometric Least Square Mean ([2]; Day 28, 0.5 g/day): 1548.74 ng·h/mL | AUC(0-∞)_D, dose-normalized Geometric Least Square Mean ([2]; Day 28, 0.5 g/day): 2636.12 ng·h/mL | Cmax_D, dose-normalized Geometric Least Square Mean ([2]; Day 28, 0.5 g/day): 206.06 ng/mL | AUC(0-t)_D, dose-normalized Geometric Least Square Mean ([2]; Day 28, 2.0 g/day): 911.01 ng·h/mL | AUC(0-τ)_D, dose-normalized Geometric Least Square Mean ([2]; Day 28, 2.0 g/day): 909.85 ng·h/mL | AUC(0-∞)_D, dose-normalized Geometric Least Square Mean ([2]; Day 28, 2.0 g/day): 1903.42 ng·h/mL | Cmax_D, dose-normalized Geometric Least Square Mean ([2]; Day 28, 2.0 g/day): 96.83 ng/mL | AUC(0-t)_D, % Ratio (90% C.I.) 2.0 g/0.5 g ([2]; Day 28, dose proportionality): 58.85 (25.18–137.51) % | AUC(0-τ)_D, % Ratio (90% C.I.) 2.0 g/0.5 g ([2]; Day 28, dose proportionality): 58.75 (25.10–137.52) % | AUC(0-∞)_D, % Ratio (90% C.I.) 2.0 g/0.5 g ([2]; Day 28, dose proportionality): 72.21 (33.02–157.88) % | Cmax_D, % Ratio (90% C.I.) 2.0 g/0.5 g ([2]; Day 28, dose proportionality): 46.99 (15.44–142.99) % | Cmax, AUC(0-τ) and AUC(0–24) exposures in the 2.0 g/day group compared to the 0.5 g/day group ([2]; human, in vivo): approximately two-fold higher or less | differences in exposure between men and women ([2]; human, in vivo): No apparent differences in exposure | apparent half-life ([2]; mono-exponential decline, both doses): approximately 15 hours | inhibitory activity against 39 common receptors (39 common receptors): no significant inhibitory activity | cholesterol, LDL and triglycerides in preclinical models of dyslipidemia, diabetes and obesity (DIO mice and ob/ob mice; e.g. DIO and Lep ob/ob obese mice): lower cholesterol, LDL and triglycerides | glucose and insulin levels (DIO mice and ob/ob mice; once daily oral 0.1 g/kg for 7 days or more, ref SRT2104 Investigator's Brochure): reduces glucose and insulin levels | body weight (DIO mice and ob/ob mice; [4]): No effect on body weight | fasting blood glucose and fed insulin (DIO mice and ob/ob mice; [4]): lowered | response to a glucose tolerance test (DIO mice and ob/ob mice; [4]): enhanced the response to a glucose tolerance test | adverse reactions in mouse models of diabetes (DIO mice and ob/ob mice; up to 0.3 g/kg orally once daily for 28 days, ref SRT2104 Investigator's Brochure): No adverse reactions
